≈ marks a conversion by molar mass, not a printed value. Read-outs that look alike come from different tables or passages of the source.
Assays:
[1] = test system: Hela S3 cultured cells; test: Effects upon Hela S3 cultured cells (cell count after 72 hours); format: cell-based; conditions: Homo sapiens
Description: Table 3 indicates the effects of typical Compounds (I) against Hela S3 culture cells In this Table, IC50 denotes the concentration of the test compound capable of reducing the number of the cells to 50% of the number of untreated cells.
The experiment was carried out in the following manner:
Cultured cells of Hela S3 were added to a MEM medium containing 10% (V/V) of bovine fetal serum and […] of glutamine to obtain a cell suspension of 3×10^4 cells/ml. The cell suspension was poured into each well (1 ml/well) of a multiplate having 24 wells for culturing at 37° C. in an incubator containing carbon dioxide (5%) and air (95%). After 24 hours, samples were dissolved or suspended in PBS, ethanol or dimethylsulfoxide were added to the medium at different concentrations,followed by culturing at 37° C. for 72 hours in the same incubator.
An aspirator was used to collect the medium from each well. The surface of each medium was washed by added PBS (1 ml) gently, and then PBS was sucked out. PBS containing trypsin (0.05%) and EDTA (0.02%) was poured into each well. After pipetting, the number of the cells in each suspension was counted by the use of a micro-cell counter (commercial product of Toa Iyo Denshi K.K., Japan). By reference to a curve showing the concentration vs. the number of the cells, IC50 (concentration of the sample capable of reducing the number of the cells to 50% on the basis of the number of control untreated cells) was measured.

[2] = in vivo; conditions: mouse, ip, ddy mice, single abdominal administration, 14 days observation, Behrens-Korber's method
Excerpt: (§1) The test compound was abdominally administered once to ddy mice, each group consisting of 5 animals.

[3] = test system: Sarcoma 180 solid tumour; format: in vivo, ddy mouse; conditions: ddy mice, LD50 abdominal, ED50 single tail vein dose, tumour volume 7 days after implantation
Excerpt: (§2) In this table, C.I. denotes chemotherapeutic index, calculated as (LD50)/(ED50), wherein LD50 denotes the value of acute toxity, and ED50 denotes the dose of a sample which is capable of reducing the volume of Sarcoma 180 solid tumour to 50% of the corresponding volume of the solid tumour of untreated group.
as §1
(§3) 5×10^6 cells of Sarcoma 180 solid tumour were abdominally implanted into a ddy mouse. After 7 days, the cells were collected from the acsites fluid. The cells were washed once with physiological saline under sterile conditions and suspended in physiological saline to obtain a cell suspension containing 5×10^7 cells/ml, of which 0.1 ml was implanted into a ddy mouse (body weight 20±2 g) under the skin of the right armpit. The test compound was dissolved in physiological saline or the same solution containing Tween 80. 24 hours after implantation of the tumour cells, 0.1-0.2 ml of the solution containing the test compound was administered to the vein at the tail of each animal of the test group consisting of 5 animals. 7 days after the implantation, the major axis (a) and minor axis (b) of the tumour were measured to calculate the volume of the tumour as "a"×"b^2 "/2. The antitumour effect was indicated by T/C which is the ratio of the tumour volume in the test animals to the corresponding volume of the control (untreated) animals.
(§4) T/C ratios and the dose were respectively plotted on the ordinate using an arithmetic scale and on the abscissa using a logarithmic scale, the relationship between the dosage and the T/C ratio being converted to a straight line by the least squares method. From the straight tropic line thus-obtained, the dose corresponding to a T/C=0.5 viz. ED50 was determined.

[4] = in vivo; conditions: mouse, ip
Excerpt: as §2, §3, §4
Sarcoma 180 solid tumour cells (5×10^6) were subcutaneously implanted into the skin under the right armpit of each mouse (body weight 20±2 g) of a group consisting of 5 male mice (ddy strain). 24 hours later, a test compound was intraperitoneally administered to each animal. 4 days later, blood (0.02 ml) was collected from the suborbital plexus vein of each tumour-carrying animal. The collected sample of blood was dispersed in 9.98 ml of Cell-kit Seven solution. One drop of saponin solution was added to the sample to dissolve erythrocytes and then a microcell counter was used to measure the number of leucocytes. On graph paper, the number of leucocytes was plotted on the ordinate using an arithmetic scale, and the dosage was plotted on the abscissa using a logarithmic scale to plot the relationship of the dosage to the number of peripheral leucocytes, from which the value of WBC4000, viz. a value capable of giving 4000 peripheral leucocytes (about half of the corresponding value in normal mice) per mm^3, was obtained.

| SMILES | IC50 ([1]; HeLa S3, 72 h) [ng/mL] | LD50 at 336 h [2] [mg/kg] | C.I. (chemotherapeutic index, LD50/ED50) [3] | selectivity ratio [4] | IC50 ([1]; Hela S3 cells, 72 hours at 37° C., concentration reducing cell number to 50% of untreated, read-out: IC50) [ng/mL] |
| --- | --- | --- | --- | --- | --- |
| CON=C1C(=O)C2=C(C(=O)C1C)N1C[C@@H]3N[C@@H]3[C@]1(OC)[C@@H]2COC(N)=O (stereo partly drawn) [Example 1, [1aS-(1aα,8β,8aα,8bα)]-8-{[(aminocarbonyl)oxy]methyl}-8a-methoxy-6-[(methoxy)imino]-5-methyl-1,1a,2,5,6,8,8a,8b-octahydro-azirino-[2',3':3,4]pyrrolo[1,2-a]indole-4,7-dione] | 12 (≈ 0.0329 µM) | 37.5 | 0.7 | 0.5 |  |
| CO[C@@]12[C@H](COC(N)=O)C3=C(C(=O)C(C)C(=NOCC(C)C)C3=O)N1C[C@@H]1N[C@@H]12 (stereo partly drawn) [Example 2, [1aS-(1aα, 8β, 8aα, 8bα)]-8-{[(aminocarbonyl)oxy]methyl}-6-[(isobutyloxy)imino]-8a-methoxy-5-methyl1,1a,2,5,6,8,8a,8b-octahydro-azirino[2',3':3,4]pyrrolo[1,2-a]indole-4,7-dione] | 3 (≈ 0.00738 µM) | 18.8 | 3.6 | 1.9 |  |
| CCC(C)ON=C1C(=O)C2=C(C(=O)C1C)N1C[C@@H]3N[C@@H]3[C@]1(OC)[C@@H]2COC(N)=O (stereo partly shown) [Example 3] | 1 (≈ 0.00246 µM) | 18.8 | 3.1 | 2.4 |  |
| CCCCON=C1C(=O)C2=C(C(=O)C1C)N1C[C@@H]3N[C@@H]3[C@]1(OC)[C@@H]2COC(N)=O (stereo partly shown) [Example 4] | 6 (≈ 0.0148 µM) | 18.8 | 2.7 | 0.9 |  |
| CO[C@@]12[C@H](COC(N)=O)C3=C(C(=O)C(C)C(=NOCC(C)C)C3=O)N1C[C@H]1[C@@H]2N1C (stereo partly drawn) [Example 5, [1aS-(1aα, 8β, 8aα, 8bα)]-8-{[(aminocarbonyl)oxy]methyl}-1,5-dimethyl-6-[(isobutyloxy)imino]8a-methoxy-1,1a,2,5,6,8,8a,8b-octahydro-azirino [2',3': 3,4]pyrrolo[1,2-a]indole-4,7-dione] |  | 60 | 3.4 | 1.4 |  |
| CC(C)CON=C1C(=O)C2=C(C(=O)C1C)N1C[C@H]3[C@H](N3C)[C@]1(O)[C@H]2COC(N)=O (stereo partly shown) [Example 6] | 30 (≈ 0.0738 µM) |  |  |  |  |
| CO[C@@]12[C@H](CO)C3=C(C(=O)C(C)C(=NOCC(C)C)C3=O)N1C[C@@H]1N[C@@H]12 (stereo partly drawn) [Example 7, [1aS-(1aα, 8β, 8aα, 8bα)]-8-hydroxymethyl-6-[(isobutyloxy)imino] -8a-methoxy-5-methyl-1,1a, 2,5,6,8,8a,8b-octahydro-azirino [2',3':3,4]pyrrolo[1,2-a] indole-4,7-dione] | 3 (≈ 0.00826 µM) |  |  |  |  |
| CO[C@@]12[C@H](COC(N)=O)C3=C(C(=O)C(C)=C(N)C3=O)N1C[C@@H]1N[C@@H]12 [Mitomycin C, reference compound] |  |  |  |  | 4 (≈ 0.012 µM) |

Reference: patent publication US4791130A, “Mitomycin derivatives as antileukemia agents” (priority 1986, dated 1988)
